In US20240010642A1, “MODULATORS OF PROGRAMMED DEATH-LIGAND-1” (SOUTHERN RESEARCH INSTITUTE, priority 2021, published 2024):
Square brackets hold non-standard residues; d marks the D form. Peptide text beside a SMILES is read from it. * marks the point of attachment. Api = NC1(C(=O)O)CCNCC1; PhAc = O=C(Cc1ccccc1)*; Ac3c = NC1(C(=O)O)CC1; Aib = CC(C)(N)C(=O)O

Each compound was assayed on PDL-1 signaling (assay: Luciferase assay (Table 1)).
Format: cell-based
Work on `NCc1cc(NC(=O)Cc2ccccc2)cc(C(=O)NC2(C(N)=O)CC2)c1` [compound 3] yielded an EC50 of 12.6 µM. In the case of `NCc1cc(NC(=O)Cc2ccc(F)cc2)cc(C(=O)NCC(N)=O)c1` [compound 9], the EC50 is reported as 0.07 µM. Work on `CC(C)(NC(=O)c1cc(NC(=O)Cc2ccc(F)cc2)cc(CN)c1F)C(N)=O` [compound 16] yielded an EC50 of 20.6 µM. Compound `NCc1cc(NC(=O)Cc2ccc(F)cc2)cc(C(=O)NC2(C(N)=O)CC2)c1` [compound 4] has an EC50 of 15.7 µM. `CC(C)(NC(=O)c1cc(NC(=O)Cc2ccccc2)ccc1CN)C(N)=O` [compound 11] gave an EC50 of 20 µM. Compound `CC(C)(NC(=O)C1(NC(=O)Cc2ccc(F)cc2)CCNCC1)C(N)=O` [compound 23] has an EC50 of 9.02 µM. `NCc1cc(NC(=O)Cc2ccccc2)cc(C(=O)NC2(C(N)=O)CCC2)c1` [compound 6] was tested, and the EC50 was 27.1 µM. `NCc1cc(NC(=O)Cc2ccccc2)cc(C(=O)NC2(C(N)=O)CCCC2)c1` [compound 7] gave an EC50 of 26.1 µM. `CC(C)(NC(=O)C1(NC(=O)Cc2ccccc2)CCNCC1)C(N)=O` [Compound No. 22, 2-methyl-2-[[4-(2-phenylacetamido)piperidin-4-yl]formamido]propanamide] (PhAc-[Api]-[Aib]-NH2) was tested, and the EC50 was 4.22 µM. `CC(C)(NC(=O)c1cc(CN)cc(NC(=O)Cc2ccccc2)c1)C(N)=O` [Compound No. 1, 2-[[3-(Aminomethyl)-5-(2-phenylacetamido)phenyl]formamido]-2-methylpropanamide] showed an EC50 of 0.39 µM. `CC(C)(NC(=O)c1cc(NC(=O)Cc2ccc(F)cc2)ccc1CN)C(N)=O` [compound 12] was tested, and the EC50 was 14.3 µM. `CN(C)Cc1cc(NC(=O)Cc2ccc(F)cc2)cc(C(=O)NC(C)(C)C(N)=O)c1` [compound 17] was tested, and the EC50 was 0.21 µM. In the case of `NC(=O)C1(NC(=O)C2(NC(=O)Cc3ccc(F)cc3)CCNCC2)CC1` [compound 25], the EC50 is reported as 0.36 µM. In the case of `NC(=O)C1(NC(=O)C2(NC(=O)Cc3ccccc3)CCNCC2)CC1` [compound 24] (PhAc-[Api]-[Ac3c]-NH2), the EC50 is reported as 7.73 µM. `NCc1cc(NC(=O)Cc2ccc(F)cc2)cc(C(=O)NC2(C(N)=O)CCC2)c1` [compound 10] gave an EC50 of 7.06 µM. For `CC(C)(NC(=O)c1ccc(CN)c(NC(=O)Cc2ccc(F)cc2)c1)C(N)=O` [compound 13], the EC50 was 20.4 µM. In the case of `CNC(=O)C(C)(C)NC(=O)c1cc(CN(C)C)cc(NC(=O)Cc2ccc(F)cc2)c1` [compound 18], the EC50 is reported as 21 µM. `CC(C)(NC(=O)c1ccc(CN)c(NC(=O)Cc2ccccc2)c1)C(N)=O` [compound 14] was tested, and the EC50 was 1.19 µM. `CC(C)(NC(=O)c1cc(CN)cc(NC(=O)Cc2ccc(F)cc2)c1)C(N)=O` [Compound No. 2] showed an EC50 of 0.93 µM. `CNC(=O)C(C)(C)NC(=O)c1cc(CN)cc(NC(=O)Cc2ccc(F)cc2)c1` [compound 19] gave an EC50 of 20.7 µM. `CC(C)(NC(=O)c1cc(NC(=O)Cc2ccccc2)cc(CN)c1F)C(N)=O` [compound 15] showed an EC50 of 19.3 µM.

The compounds below were run against PDL-1 (Homo sapiens (Human), UniProt Q9NZQ7) (assay: KD binding (Table 1)).
Chain of PDL-1 (Q9NZQ7 19-290): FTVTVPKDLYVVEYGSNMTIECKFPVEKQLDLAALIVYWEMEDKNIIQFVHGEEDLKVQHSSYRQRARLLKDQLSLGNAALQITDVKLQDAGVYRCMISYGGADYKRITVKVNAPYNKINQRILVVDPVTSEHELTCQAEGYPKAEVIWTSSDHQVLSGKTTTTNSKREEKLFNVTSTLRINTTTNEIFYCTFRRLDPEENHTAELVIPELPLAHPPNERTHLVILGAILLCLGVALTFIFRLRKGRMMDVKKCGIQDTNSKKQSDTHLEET
`CC(C)(NC(=O)c1cc(NC(=O)Cc2ccc(F)cc2)cc(CN)c1F)C(N)=O` [compound 16] was tested, and the KD was “No Binding”. With `NCc1cc(NC(=O)Cc2ccccc2)cc(C(=O)NC2(C(N)=O)CCCC2)c1` [compound 7] the KD was “No Binding”. `CC(C)(NC(=O)c1cc(CN)cc(NC(=O)Cc2ccccc2)c1)C(N)=O` [Compound No. 1, 2-[[3-(Aminomethyl)-5-(2-phenylacetamido)phenyl]formamido]-2-methylpropanamide] was tested, and the KD was “No Binding”. For `CNC(=O)C(C)(C)NC(=O)c1cc(CN(C)C)cc(NC(=O)Cc2ccc(F)cc2)c1` [compound 18], the KD was “No Binding”.
